Experimental data taken from PubChem BioAssay AID1963420 (Molecular Pharmacology Branch, DTP, NCI, 2024).

Test system: 494315-158-R-J1-PDC complex spheroid growth, percent test/control
Assay: Anticancer human tumor 494315-158-R-J1-PDC patient-derived soft tissue sarcoma cell line growth inhibition [Asc]
Settings: for IC50: curve of first compound; for viability, T/C: stronger effect = lower value
Summary of the method: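 Tumor cells were grown as multicellular spheroids with stromal HUVEC and mesenchymal stem cells and treated singly or in combination. Concentrations fell in half-log steps from the clinical Cmax, or from 10 microM where none was known.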
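Note: compound exposure lasted seven days after spheroids formed for three days.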

**Q.** For `Cc1nc(N2CCC3(CC2)COC(C)C3N)c(CO)nc1Sc1ccnc(N)c1Cl` (stereo not given) + Cc1c(S(C)(=O)=O)c(-c2cc(F)cc(N3CCN(c4ccc(NS(=O)(=O)c5ccc(NC(CCN6CCC(C(=O)OCCCP(=O)(O)O)CC6)CSc6ccccc6)c(S(=O)(=O)C(F)(F)F)c5)cc4)CC3)c2)c(-c2ccc(Cl)cc2)n1C(C)C, which IC50 (second compound 0.1 µM) is on record?
**A.** Its IC50 is 0.558 µM.

**Q.** What about the IC50 (second compound 0.316 µM) of the same compound?
**A.** The IC50 was 0.26 µM.

**Q.** What about the IC50 (second compound 1 µM) of the same compound?
**A.** The IC50 was 0.107 µM.

**Q.** What about the IC50 (second compound 3.16 µM) of the same compound?
**A.** The IC50 was less than 0.00949 µM.

**Q.** What about the IC50 (second compound 10 µM) of the same compound?
**A.** The IC50 was 0.194 µM.

**Q.** And the viability, T/C (second compound 0.1 µM, first compound 0.00949 µM)?
**A.** Its viability, T/C is 71.1%.

**Q.** And the viability, T/C (second compound 0.1 µM, first compound 0.03 µM)?
**A.** The viability, T/C was 80.7%.

**Q.** And the viability, T/C (second compound 0.1 µM, first compound 0.0949 µM)?
**A.** Its viability, T/C is 69.1%.

**Q.** And the viability, T/C (second compound 0.1 µM, first compound 0.3 µM)?
**A.** The viability, T/C was 61.6%.

**Q.** And the viability, T/C (second compound 0.1 µM, first compound 0.949 µM)?
**A.** Its viability, T/C is 40.5%.

**Q.** What about the viability, T/C (second compound 0.1 µM, first compound 3 µM) of the same compound?
**A.** The viability, T/C was 23.5%.

**Q.** And the viability, T/C (second compound 0.316 µM, first compound 0.00949 µM)?
**A.** The viability, T/C was 68.3%.

**Q.** And the viability, T/C (second compound 0.316 µM, first compound 0.03 µM)?
**A.** The viability, T/C was 70%.

**Q.** And the viability, T/C (second compound 0.316 µM, first compound 0.0949 µM)?
**A.** The viability, T/C was 51.8%.

**Q.** What about the viability, T/C (second compound 0.316 µM, first compound 0.3 µM) of the same compound?
**A.** Its viability, T/C is 55.2%.

**Q.** And the viability, T/C (second compound 0.316 µM, first compound 0.949 µM)?
**A.** The viability, T/C was 30.5%.

**Q.** What about the viability, T/C (second compound 0.316 µM, first compound 3 µM) of the same compound?
**A.** The viability, T/C was 17.1%.

**Q.** What about the viability, T/C (second compound 1 µM, first compound 0.00949 µM) of the same compound?
**A.** The viability, T/C was 71.4%.

**Q.** What about the viability, T/C (second compound 1 µM, first compound 0.03 µM) of the same compound?
**A.** Its viability, T/C is 71%.

**Q.** What about the viability, T/C (second compound 1 µM, first compound 0.0949 µM) of the same compound?
**A.** Its viability, T/C is 49.6%.

**Q.** And the viability, T/C (second compound 1 µM, first compound 0.3 µM)?
**A.** Its viability, T/C is 34.6%.

**Q.** And the viability, T/C (second compound 1 µM, first compound 0.949 µM)?
**A.** Its viability, T/C is 20.7%.

**Q.** And the viability, T/C (second compound 1 µM, first compound 3 µM)?
**A.** Its viability, T/C is 21%.

**Q.** And the viability, T/C (second compound 3.16 µM, first compound 0.00949 µM)?
**A.** The viability, T/C was 48.8%.

**Q.** What about the viability, T/C (second compound 3.16 µM, first compound 0.03 µM) of the same compound?
**A.** Its viability, T/C is 41.2%.

**Q.** What about the viability, T/C (second compound 3.16 µM, first compound 0.0949 µM) of the same compound?
**A.** The viability, T/C was 43.6%.

**Q.** And the viability, T/C (second compound 3.16 µM, first compound 0.3 µM)?
**A.** Its viability, T/C is 26.4%.

**Q.** What about the viability, T/C (second compound 3.16 µM, first compound 0.949 µM) of the same compound?
**A.** Its viability, T/C is 22.6%.

**Q.** What about the viability, T/C (second compound 3.16 µM, first compound 3 µM) of the same compound?
**A.** The viability, T/C was 10.3%.

**Q.** What about the viability, T/C (second compound 10 µM, first compound 0.00949 µM) of the same compound?
**A.** The viability, T/C was 76.8%.

**Q.** What about the viability, T/C (second compound 10 µM, first compound 0.03 µM) of the same compound?
**A.** Its viability, T/C is 69.6%.

**Q.** And the viability, T/C (second compound 10 µM, first compound 0.0949 µM)?
**A.** The viability, T/C was 67.6%.

**Q.** And the viability, T/C (second compound 10 µM, first compound 0.3 µM)?
**A.** The viability, T/C was 38.5%.

**Q.** And the viability, T/C (second compound 10 µM, first compound 0.949 µM)?
**A.** The viability, T/C was 22.1%.

**Q.** And the viability, T/C (second compound 10 µM, first compound 3 µM)?
**A.** The viability, T/C was 8.76%.
